This series can be described thus: in vitro. To be noted: Streptomyces griseus, isolated enzyme pronase, pH 7.4.

*1 amine or outer side, *2 acyl side, *3 side chain or, on linkers, in order; H or OH if unused. Where a SMILES comes first, the peptide text is derived from it. Bridges are numbered along the chain shown (N, C = ends). X1 = O=C(C=NOCCCCCCOc1cc(C[*:2])cc(C[*:3])c1)[*:1]

Method: Protocol for measurement of proteolytic stability in PronaseTM :
In a 600 L Eppendorf tube, we combined 196 L PBS (pH 7.4), 2 L of corresponding peptide
solution (from 10 mM stock) and 2 L of 0.1 mg/mL PronaseTM. The mixture was vortexed and
incubated at 37 °C. At indicated time points, 10 L of the solution was sampled, quenched with
190 L of 50% aq. CH3CN and maintained at 4 °C until analysis by LCMS.

As usually defined, the amount remaining is the share of the starting amount still present when the sample was taken. For `CC(C)C[C@@H]1NC(=O)[C@H](Cc2ccc(O)cc2)NC(=O)[C@@H]2CSCc3cc(cc(c3)OCCCCCCON=CC(=O)N[C@@H](Cc3c[nH]c4ccccc34)C(=O)N[C@@H](CC(=O)O)C(=O)N[C@@H](Cc3ccc(O)cc3)C(=O)N[C@@H](CCCNC(=N)N)C(=O)N[C@@H](CCC(=O)O)C(=O)N2)CSC[C@@H](C(N)=O)NC(=O)[C@H](CCC(=O)O)NC1=O` [TSL-6-SWDYRECYLEC] (WDYRECYLEC-NH2; linker N-6-10 via X1), the fraction remaining at 5 h, 100 µM was 68 ± 14%.

(Values after paper PMC8294009, “Genetically-encoded discovery of proteolytically stable bicyclic inhibitors for morphogen NODAL” (Chemical Science, 2021).)
